Here are results for twelve compounds from PubChem BioAssay (NCI).

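1) Cells in 96-well plates. 2) Compound, 48 h, 5 concentrations. 3) Linear interpolation between surrounding doses. 4) Unreached endpoint = highest concentration. GI50 = concentration required for 50% inhibition of growth. At the TGI there is no net growth.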 Where only a bound is given, the exact number is not on record here.

Among the test systems are RXF 393 renal; IGROV1 ovarian; MDA-MB-231 breast; SK-MEL-28 melanoma; EKVX NSCLC; A549 NSCLC; SNB-19 CNS; HOP-92 NSCLC; UO-31 renal; SK-MEL-2 melanoma.
Common to all, as to assay: growth of human tumour cells (NCI), 48 h

Consider `O=c1oc2ccc(Cl)cc2cc1-c1cn2ccsc2n1`, for which the TGI with RXF 393 renal, in the test on IGROV1 ovarian, in the test on MDA-MB-231 breast, in the test on SK-MEL-28 melanoma, with EKVX NSCLC and in the test on A549 NSCLC was > 100 µM throughout. Further, the TGI in the test on SNB-19 CNS is > 100 µM; in the test on HOP-92 NSCLC, 64.3 µM; in the test on UO-31 renal, > 100 µM; with SK-MEL-2 melanoma, > 100 µM.
Turning to `CCCCCCCCCCCCCCCCOCC(Cl)COP(=O)(O)OP(=O)(O)OCC1OC(n2cnc3c(N)ncnc32)C(O)C1O` (stereo unspecified), the TGI with RXF 393 renal, with IGROV1 ovarian, in the test on MDA-MB-231 breast, with SK-MEL-28 melanoma, with EKVX NSCLC and in the test on A549 NSCLC was > 100 µM in each case. Further, the TGI in the test on SNB-19 CNS, in the test with HOP-92 NSCLC, with UO-31 renal and in the test on SK-MEL-2 melanoma was > 100 µM in each case.
For `CCN(CC)CCN(C)CCc1ccc(Br)cc1`, the TGI with RXF 393 renal, in the test with IGROV1 ovarian, with MDA-MB-231 breast, with SK-MEL-28 melanoma, in the test on EKVX NSCLC and in the test with A549 NSCLC was > 100 µM in each case. The TGI in the test with SNB-19 CNS, in the test on HOP-92 NSCLC, in the test with UO-31 renal and in the test with SK-MEL-2 melanoma was > 100 µM in each case.
Consider `Cc1ccc(/C=C2\CN(C)CC3C2=NC(=S)NC3c2ccc(C)cc2)cc1` (stereo unspecified), for which the TGI in the test with RXF 393 renal was > 87.1 µM; in the test with IGROV1 ovarian, > 80.1 µM; with MDA-MB-231 breast, > 100 µM; in the test on SK-MEL-28 melanoma, > 100 µM; with EKVX NSCLC it was > 40.3 µM; with A549 NSCLC it was > 100 µM. The TGI with SNB-19 CNS was > 100 µM; in the test with HOP-92 NSCLC it was > 31.1 µM; in the test with UO-31 renal, > 100 µM; with SK-MEL-2 melanoma it was > 100 µM.
As to `CC1=C2NCN(C)N=C2C(C#N)(C#N)C1(C#N)C#N`, the TGI in the test with RXF 393 renal was 42.7 µM; with IGROV1 ovarian, > 63 µM; in the test on MDA-MB-231 breast it was 36.2 µM; in the test on SK-MEL-28 melanoma it was 49.9 µM; with EKVX NSCLC, > 57.3 µM; in the test on A549 NSCLC, > 100 µM. For the same compound, the TGI with SNB-19 CNS is > 95.2 µM; in the test with HOP-92 NSCLC, 32 µM; with UO-31 renal, 36.7 µM; with SK-MEL-2 melanoma it was > 100 µM.
With `CO[P@]1(=O)O[C@@H](c2ccccc2)[C@H](O)[C@@]1(O)c1ccccc1`, the TGI in the test with RXF 393 renal, with IGROV1 ovarian, in the test with MDA-MB-231 breast, in the test with SK-MEL-28 melanoma, with EKVX NSCLC and in the test on A549 NSCLC was > 100 µM in each case. Further, the TGI in the test with SNB-19 CNS, in the test with HOP-92 NSCLC, in the test with UO-31 renal and in the test with SK-MEL-2 melanoma was > 100 µM each time.
As for `NC(=S)N/N=C\CC(O)(C(F)(F)F)C(F)(F)F`, the TGI in the test on RXF 393 renal, in the test with IGROV1 ovarian, in the test on MDA-MB-231 breast, with SK-MEL-28 melanoma, with EKVX NSCLC and in the test on A549 NSCLC was > 10 µM each time. In addition, the TGI in the test with SNB-19 CNS, with HOP-92 NSCLC, in the test on UO-31 renal and in the test on SK-MEL-2 melanoma was > 10 µM throughout.
Turning to `CCCNC(=O)CCC(C)[C@H]1CCC2C3C(C[C@H](OC(C)=O)[C@@]21C)[C@@]1(C)CCC2(C[C@H]1C[C@H]3OC(C)=O)OOC1(CCCCC1)OO2` (stereo partly specified), the TGI was 27.7 µM in the test with RXF 393 renal; 2.22 µM in the test on IGROV1 ovarian; 5.31 µM with MDA-MB-231 breast; > 100 µM in the test with SK-MEL-28 melanoma; 3.95 µM in the test on EKVX NSCLC; 2.82 µM with A549 NSCLC. The TGI in the test with SNB-19 CNS is > 100 µM; with HOP-92 NSCLC it was 3.82 µM; with UO-31 renal, 0.232 µM; with SK-MEL-2 melanoma it was 7.05 µM. For the same compound, the GI50 with HOP-92 NSCLC is 1.42 µM.
Regarding `Cc1c2cccc-2ccc2c1[nH]c1ccccc12`, the TGI was determined as 9.42 µM in the test with RXF 393 renal; 5.77 µM in the test with IGROV1 ovarian; 3.48 µM with MDA-MB-231 breast; 3.67 µM in the test with SK-MEL-28 melanoma; 3.68 µM in the test with EKVX NSCLC; 5.65 µM in the test on A549 NSCLC. Also, the TGI was determined as 10.3 µM in the test with SNB-19 CNS, 7.75 µM in the test on HOP-92 NSCLC, 3.14 µM in the test with UO-31 renal and 3.39 µM in the test with SK-MEL-2 melanoma.
In the case of `O=C1OI(C#Cc2ccccc2)c2ccccc21`, the TGI with RXF 393 renal is 97.5 µM; with IGROV1 ovarian it was 6.17 µM; in the test on MDA-MB-231 breast it was > 55.3 µM; with SK-MEL-28 melanoma, 21.2 µM; in the test with EKVX NSCLC, 9.67 µM; with A549 NSCLC it was 39.7 µM. The TGI with SNB-19 CNS came out at 21.8 µM; in the test on HOP-92 NSCLC, 5.66 µM; in the test with UO-31 renal it was 14.3 µM; in the test with SK-MEL-2 melanoma it was 44.1 µM.
On to `CC(=O)c1ccc(NC(=O)CSc2nc(C)nc3c2sc(=S)n3-c2ccccc2)cc1`, for which the TGI in the test with RXF 393 renal, in the test on IGROV1 ovarian, with MDA-MB-231 breast, in the test with SK-MEL-28 melanoma, with EKVX NSCLC and in the test with A549 NSCLC was > 3.16 µM throughout. In addition, the TGI in the test on SNB-19 CNS is > 3.16 µM; in the test with HOP-92 NSCLC it was > 3.16 µM; in the test on UO-31 renal, > 10 µM; with SK-MEL-2 melanoma it was > 3.16 µM.
With `COC1=CC(=O)C2=C(C1=O)[C@H]1CC[C@]3(C)[C@@H](OC(C)=O)CC[C@H]3[C@@H]1CC2`, the TGI was > 100 µM in the test with RXF 393 renal; > 100 µM in the test with IGROV1 ovarian; 35.3 µM with MDA-MB-231 breast; > 100 µM in the test on SK-MEL-28 melanoma; 28.5 µM in the test with EKVX NSCLC; > 100 µM with A549 NSCLC. Also, the TGI was > 100 µM with SNB-19 CNS, 24 µM with HOP-92 NSCLC, > 100 µM in the test on UO-31 renal and > 100 µM with SK-MEL-2 melanoma.
